Laboratory results taken from publication PMC4977286 (Frontiers in Pharmacology, 2016).
Like-named read-outs stand apart in the source and are kept apart here.

How the values were obtained:
[1] = target: T1, UGT1A1 (Homo sapiens, UniProt P22309)
T1 sequence (P22309 26-533): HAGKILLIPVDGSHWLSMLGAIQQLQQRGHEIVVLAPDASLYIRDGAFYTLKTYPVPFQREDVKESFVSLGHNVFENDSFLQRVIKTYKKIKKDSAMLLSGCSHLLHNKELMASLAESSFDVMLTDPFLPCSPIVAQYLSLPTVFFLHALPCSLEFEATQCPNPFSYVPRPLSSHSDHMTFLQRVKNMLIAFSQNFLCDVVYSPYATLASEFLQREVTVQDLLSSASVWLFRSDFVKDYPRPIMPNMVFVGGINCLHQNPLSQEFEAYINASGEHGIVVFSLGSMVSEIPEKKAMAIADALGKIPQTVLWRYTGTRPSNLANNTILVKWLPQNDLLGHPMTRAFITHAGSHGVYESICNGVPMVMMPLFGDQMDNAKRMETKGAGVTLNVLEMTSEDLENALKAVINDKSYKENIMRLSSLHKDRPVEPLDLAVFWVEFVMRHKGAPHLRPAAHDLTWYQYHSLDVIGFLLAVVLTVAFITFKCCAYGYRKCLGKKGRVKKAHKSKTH

[2] = tested on: rat liver microsomes; conditions: for TNP-G formation, Liver microsome: rat
[3] = rat, in vivo
[4] = target: T2, MRP2 (Homo sapiens, UniProt Q92887); type: biochemical; parameters: purchased BD Gentest Co. (Woburn, MA)
[5] = mouse, in vivo
[6] = target: MDR1 (Homo sapiens, UniProt P08183)
[7] = target: T3, BCRP (Homo sapiens, UniProt Q9UNQ0)
T3 sequence (Q9UNQ0 1-655): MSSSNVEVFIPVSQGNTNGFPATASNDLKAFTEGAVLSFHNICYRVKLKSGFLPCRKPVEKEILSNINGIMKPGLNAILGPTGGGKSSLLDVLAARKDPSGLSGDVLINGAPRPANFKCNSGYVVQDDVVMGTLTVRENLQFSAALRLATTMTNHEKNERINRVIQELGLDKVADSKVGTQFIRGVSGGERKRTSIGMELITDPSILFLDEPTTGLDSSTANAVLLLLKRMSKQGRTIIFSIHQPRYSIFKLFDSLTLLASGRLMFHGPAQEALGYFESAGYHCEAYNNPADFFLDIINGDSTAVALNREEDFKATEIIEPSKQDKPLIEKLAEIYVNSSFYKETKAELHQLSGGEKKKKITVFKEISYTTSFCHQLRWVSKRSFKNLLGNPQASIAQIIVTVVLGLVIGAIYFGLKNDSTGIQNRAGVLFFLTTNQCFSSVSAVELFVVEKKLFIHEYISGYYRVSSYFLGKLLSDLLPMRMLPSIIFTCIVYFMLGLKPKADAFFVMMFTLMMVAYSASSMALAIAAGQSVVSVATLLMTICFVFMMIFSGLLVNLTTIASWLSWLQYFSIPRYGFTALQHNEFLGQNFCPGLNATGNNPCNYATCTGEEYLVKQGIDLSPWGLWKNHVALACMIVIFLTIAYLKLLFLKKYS

[8] = in vivo; conditions: rat
[9] = tested on: sandwich-cultured rat hepatocytes (SCRH)
[10] = in vivo; conditions: mouse, po, 12 mg/kg
[11] = target: T2, MRP2
[12] = cited from earlier work
[13] = target: P-gp (Homo sapiens, UniProt P08183)
[14] = target: MRP2 (Rattus norvegicus, UniProt Q63120); assay: Bile clearance of TNP-G in SCRH with MRP2 inhibitors or inducer; conditions: for BEI of TNP-G, % of the control cells: TNP-G 20 μM; for BEI of TNP-G, % of the control cells / CLbile, int of TNP-G decreased by: inhibitor 100 μM
[15] = tested on: P-gp

T2 sequence (Q92887 whole entry): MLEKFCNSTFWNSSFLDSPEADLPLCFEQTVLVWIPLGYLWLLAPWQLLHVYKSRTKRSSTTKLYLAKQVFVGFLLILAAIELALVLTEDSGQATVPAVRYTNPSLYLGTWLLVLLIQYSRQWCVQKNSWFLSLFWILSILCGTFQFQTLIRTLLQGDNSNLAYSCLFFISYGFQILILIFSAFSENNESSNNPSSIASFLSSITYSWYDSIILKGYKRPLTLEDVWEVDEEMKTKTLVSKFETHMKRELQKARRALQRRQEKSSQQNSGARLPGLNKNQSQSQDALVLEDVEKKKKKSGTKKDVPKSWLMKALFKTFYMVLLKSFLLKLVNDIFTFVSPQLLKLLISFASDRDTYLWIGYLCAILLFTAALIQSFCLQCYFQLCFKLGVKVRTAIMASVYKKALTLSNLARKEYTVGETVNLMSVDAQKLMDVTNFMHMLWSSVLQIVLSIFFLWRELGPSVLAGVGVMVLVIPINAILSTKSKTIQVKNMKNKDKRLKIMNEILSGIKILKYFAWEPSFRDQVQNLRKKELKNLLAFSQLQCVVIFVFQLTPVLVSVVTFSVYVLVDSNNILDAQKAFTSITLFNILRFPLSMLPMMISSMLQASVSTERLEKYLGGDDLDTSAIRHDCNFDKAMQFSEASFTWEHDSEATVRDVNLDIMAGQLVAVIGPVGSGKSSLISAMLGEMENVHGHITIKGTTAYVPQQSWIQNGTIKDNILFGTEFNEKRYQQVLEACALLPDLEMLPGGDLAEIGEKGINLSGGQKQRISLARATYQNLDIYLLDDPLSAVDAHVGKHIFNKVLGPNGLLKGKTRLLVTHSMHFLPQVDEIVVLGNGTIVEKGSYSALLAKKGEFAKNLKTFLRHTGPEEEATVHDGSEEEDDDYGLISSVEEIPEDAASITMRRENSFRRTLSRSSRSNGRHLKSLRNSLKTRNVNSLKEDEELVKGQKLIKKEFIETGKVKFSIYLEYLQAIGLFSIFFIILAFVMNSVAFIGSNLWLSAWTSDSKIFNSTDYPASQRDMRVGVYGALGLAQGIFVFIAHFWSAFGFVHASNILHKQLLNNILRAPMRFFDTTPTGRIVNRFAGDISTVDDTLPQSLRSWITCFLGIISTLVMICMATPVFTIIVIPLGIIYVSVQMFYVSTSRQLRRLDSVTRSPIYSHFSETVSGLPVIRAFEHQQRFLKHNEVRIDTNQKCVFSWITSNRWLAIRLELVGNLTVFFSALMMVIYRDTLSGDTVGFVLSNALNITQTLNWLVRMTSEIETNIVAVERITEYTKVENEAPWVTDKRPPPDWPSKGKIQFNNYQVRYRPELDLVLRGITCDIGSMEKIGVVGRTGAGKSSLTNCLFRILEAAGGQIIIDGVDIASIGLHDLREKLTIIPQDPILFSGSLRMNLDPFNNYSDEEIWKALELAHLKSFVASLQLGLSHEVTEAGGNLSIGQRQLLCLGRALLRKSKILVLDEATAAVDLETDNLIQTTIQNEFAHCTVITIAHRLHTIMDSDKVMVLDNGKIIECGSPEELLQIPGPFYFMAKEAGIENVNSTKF
Chain of MRP2 (Rattus norvegicus, UniProt Q63120) (Q63120 whole entry): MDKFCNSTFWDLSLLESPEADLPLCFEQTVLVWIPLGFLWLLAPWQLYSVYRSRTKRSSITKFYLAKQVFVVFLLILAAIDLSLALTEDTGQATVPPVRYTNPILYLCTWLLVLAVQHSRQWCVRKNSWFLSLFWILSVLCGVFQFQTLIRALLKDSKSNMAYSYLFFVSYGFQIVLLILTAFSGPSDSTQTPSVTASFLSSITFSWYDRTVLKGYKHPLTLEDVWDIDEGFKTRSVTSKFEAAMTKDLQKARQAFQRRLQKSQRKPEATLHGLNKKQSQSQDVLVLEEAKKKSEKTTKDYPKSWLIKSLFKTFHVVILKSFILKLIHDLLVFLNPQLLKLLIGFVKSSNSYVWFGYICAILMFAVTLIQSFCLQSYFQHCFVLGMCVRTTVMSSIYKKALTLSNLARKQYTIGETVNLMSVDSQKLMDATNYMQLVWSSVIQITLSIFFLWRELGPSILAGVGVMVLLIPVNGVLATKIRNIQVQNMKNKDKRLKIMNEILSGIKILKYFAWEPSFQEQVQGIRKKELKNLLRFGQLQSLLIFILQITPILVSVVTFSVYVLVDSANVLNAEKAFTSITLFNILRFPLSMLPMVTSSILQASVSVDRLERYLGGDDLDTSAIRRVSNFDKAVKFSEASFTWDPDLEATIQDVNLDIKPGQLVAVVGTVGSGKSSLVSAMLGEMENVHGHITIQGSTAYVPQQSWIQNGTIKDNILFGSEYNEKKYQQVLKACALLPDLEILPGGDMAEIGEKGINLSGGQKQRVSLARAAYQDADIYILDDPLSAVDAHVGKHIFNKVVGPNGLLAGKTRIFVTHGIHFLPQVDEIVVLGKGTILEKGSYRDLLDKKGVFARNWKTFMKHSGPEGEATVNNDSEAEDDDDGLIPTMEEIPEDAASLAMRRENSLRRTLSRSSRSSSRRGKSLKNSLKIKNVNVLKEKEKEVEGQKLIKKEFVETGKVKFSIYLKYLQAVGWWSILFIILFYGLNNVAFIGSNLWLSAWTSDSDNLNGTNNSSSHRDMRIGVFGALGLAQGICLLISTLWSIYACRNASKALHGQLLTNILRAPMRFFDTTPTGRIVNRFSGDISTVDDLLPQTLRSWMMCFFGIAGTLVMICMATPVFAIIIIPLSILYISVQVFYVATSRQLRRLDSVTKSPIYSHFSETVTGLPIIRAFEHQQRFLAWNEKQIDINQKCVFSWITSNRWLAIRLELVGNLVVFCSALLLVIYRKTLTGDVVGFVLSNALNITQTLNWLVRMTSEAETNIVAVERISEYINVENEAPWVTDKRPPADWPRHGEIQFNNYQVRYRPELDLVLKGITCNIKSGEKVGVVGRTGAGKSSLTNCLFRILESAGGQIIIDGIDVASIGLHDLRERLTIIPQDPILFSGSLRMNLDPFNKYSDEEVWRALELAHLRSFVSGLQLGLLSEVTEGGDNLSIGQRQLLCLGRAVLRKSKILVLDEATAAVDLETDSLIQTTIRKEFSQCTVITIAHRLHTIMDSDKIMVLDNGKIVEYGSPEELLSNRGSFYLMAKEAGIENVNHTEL
Chain of P-gp (Homo sapiens, UniProt P08183) (P08183 whole entry): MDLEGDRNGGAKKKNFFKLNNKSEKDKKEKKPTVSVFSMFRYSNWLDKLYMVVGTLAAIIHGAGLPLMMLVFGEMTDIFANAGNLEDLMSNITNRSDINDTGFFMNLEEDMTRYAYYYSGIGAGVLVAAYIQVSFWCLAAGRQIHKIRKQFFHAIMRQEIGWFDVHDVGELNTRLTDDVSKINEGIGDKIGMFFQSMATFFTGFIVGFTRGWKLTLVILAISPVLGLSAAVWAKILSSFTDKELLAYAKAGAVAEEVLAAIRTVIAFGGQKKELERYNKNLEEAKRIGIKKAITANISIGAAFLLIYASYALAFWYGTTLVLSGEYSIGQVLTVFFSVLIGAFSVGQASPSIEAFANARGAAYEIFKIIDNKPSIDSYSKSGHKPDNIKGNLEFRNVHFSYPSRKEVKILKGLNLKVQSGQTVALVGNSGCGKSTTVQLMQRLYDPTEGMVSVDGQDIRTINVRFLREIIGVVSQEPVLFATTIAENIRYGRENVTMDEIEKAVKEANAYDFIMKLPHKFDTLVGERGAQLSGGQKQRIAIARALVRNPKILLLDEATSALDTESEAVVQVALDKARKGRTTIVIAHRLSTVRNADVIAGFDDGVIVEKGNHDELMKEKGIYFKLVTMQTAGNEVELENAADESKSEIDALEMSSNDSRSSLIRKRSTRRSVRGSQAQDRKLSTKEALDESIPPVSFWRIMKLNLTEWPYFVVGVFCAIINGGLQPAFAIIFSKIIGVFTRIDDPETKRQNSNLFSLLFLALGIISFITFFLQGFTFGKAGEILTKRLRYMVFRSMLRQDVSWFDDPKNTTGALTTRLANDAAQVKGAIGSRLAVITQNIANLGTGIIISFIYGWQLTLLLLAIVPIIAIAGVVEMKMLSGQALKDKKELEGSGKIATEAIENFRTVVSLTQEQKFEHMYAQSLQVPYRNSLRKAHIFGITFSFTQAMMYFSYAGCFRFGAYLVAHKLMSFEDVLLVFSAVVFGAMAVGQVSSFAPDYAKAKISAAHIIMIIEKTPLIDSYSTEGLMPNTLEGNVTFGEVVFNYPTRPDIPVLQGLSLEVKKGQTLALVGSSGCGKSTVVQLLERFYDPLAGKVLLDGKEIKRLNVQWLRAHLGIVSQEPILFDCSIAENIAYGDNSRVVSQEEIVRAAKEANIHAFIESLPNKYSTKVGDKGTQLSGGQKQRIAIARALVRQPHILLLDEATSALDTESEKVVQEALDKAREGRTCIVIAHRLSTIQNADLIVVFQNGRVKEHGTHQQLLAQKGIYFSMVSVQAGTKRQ

With `C[C@@H]1C[C@H]2[C@@H]3CCC4=CC(=O)C=C[C@]4(C)[C@@]3(F)[C@@H](O)C[C@]2(C)[C@@]1(O)C(=O)CO` [Dexamethasone, dexamethasone] the “TNP-G formation, UGT1A1” value [1] was 1542.4 ± 27.9 ng/mL and the “TNP-G formation, Liver microsome” value [2] was 2219.3 ± 52.8 ng/mL.
For `COC12CCC3(CC1C(C)(O)CCc1cccs1)C1Cc4ccc(OC5OC(C(=O)O)C(O)C(O)C5O)c5c4C3(CCN1CC1CC1)C2O5` (stereo not shown) [TNP-G, thienorphine-3-glucuronide], the “CLbile,obs From Eq.5” value [3] was 6.9 ± 0.5 mL/min/kg, the “Transporter substrate finding, MRP2” value [4] was “MRP2 substrate” and the “Vanadate-sensitive ATPase activities, MRP2” value [4] was 4.1 ± 0.6 nmol/min/mg. For the same compound, the “increase in AUC0-t compared to the NC-siRNA group” value [5] was 1.9 fold, the “increase in Cmax compared to the NC-siRNA group” value [5] was 2.7 fold and the “AUC(0-t)” value ([5]; po, 12 mg/kg) was 202.7 ± 70.7 ng·h/mL. The MRT ([5]; po, 12 mg/kg) was 6.7 ± 1.7 h, the t1/2 ([5]; po, 12 mg/kg) was 6.1 ± 1.1 h and the “Vanadate-sensitive ATPase activities, MDR1” value [6] was 4.2 ± 0.8 nmol/min/mg. For the same compound, the “Vanadate-sensitive ATPase activities, BCRP” value [7] was 5.8 ± 0.8 nmol/min/mg, the dose excreted [8] was no more than 28% and the “CLbile, int From Eq. 2” value [9] was 11.2 ± 2.7 mL/min/kg. For the same compound, the “CLbile,pred (plasma total concentration) relative to measured CLbile,obs” value [9] was roughly 1.3 fold, the “CLbile,pred From Eq. 3” value [9] was 8.7 ± 1.7 mL/min/kg and the “CLbile,pred From Eq. 4” value [9] was 0.2 ± 0.01 mL/min/kg. For the same compound, the “average BEI (biliary excretion index)” value [9] was 41.4 ± 2.6, the AUC(0-t) ([10]; AUC(0-t)) was 108 ± 19.6 ng·h/mL and the MRT ([10]; MRT) was 5.7 ± 2 h. The half-life ([10]; t1/2) was 4.3 ± 1.7 h, the “intracellular concentration, increase compared with the NC-siRNA group” value [11] was 2.1 fold and the “fu,p (plasma unbound fraction)” value [12] was 0.02. For the same compound, the “intracellular concentration, increase compared with the NC-siRNA group” value [13] was “not impacted”, the “CLbile,int of TNP-G” value ([14]; dexamethasone 0 μM (control)) was 4.2 ± 0.1 mL/min/kg and the “CLbile,int of TNP-G” value ([14]; methotrexate 0 μM (control)) was 3.1 ± 0.4 mL/min/kg. The “CLbile,int of TNP-G” value ([14]; probenecid 0 μM (control)) was 1.6 ± 0.03 mL/min/kg.
With `CN(Cc1cnc2nc(N)nc(N)c2n1)c1ccc(C(=O)N[C@@H](CCC(=O)O)C(=O)O)cc1` [Methotrexate, methotrexate] the “BEI of TNP-G, % of the control cells” value [14] was 20% and the “CLbile, int of TNP-G decreased by” value [14] was 74.2%.
With `O=C(O)c1cc(/N=N/c2ccc(S(=O)(=O)Nc3ccccn3)cc2)ccc1O` [Sulfasalazine, sulfasalazine, reference compound] the “Vanadate-sensitive ATPase activities, BCRP” value [7] was 32.2 ± 1.3 nmol/min/mg.
For `CCCN(CCC)S(=O)(=O)c1ccc(C(=O)O)cc1` [Probenecid, probenecid], the “24 h biliary excretion rate of TNP-G, % of the control level” value [3] was 74%, the “Vanadate-sensitive ATPase activities, MRP2” value [4] was 5.7 ± 0.2 nmol/min/mg and the “TNP-G formation, UGT1A1” value [1] was 1527.5 ± 83.9 ng/mL. The “effect on TNP glucuronidation” value [2] was “no significant effect”, the “TNP-G formation, Liver microsome” value ([2]; 60 min, 100 µM) was 2191.5 ± 123.1 ng/mL and the “BEI of TNP-G, % of the control cells” value [14] was 22.8%. The “CLbile, int of TNP-G decreased by” value [14] was 78.1%.
With `COc1cc2c(cc1OC)CN(CCc1ccc(NC(=O)c3cc(OC)c(OC)cc3NC(=O)c3cnc4ccccc4c3)cc1)CC2` [Tariquidar, tariquidar] the “BEI of TNP, % of the control cells” value [15] was 34.5%, the “CLbile, int of TNP reduced to” value [15] was 83.1% and the “cumulative bile excretion of TNP, % of the control level” value [3] was 45%. The “TNP-G formation, UGT1A1” value ([1]; 60 min, 100 µM) was 1533.8 ± 25.4 ng/mL and the “TNP-G formation, Liver microsome” value ([2]; 60 min, 100 µM) was 2154.6 ± 26.9 ng/mL.
With `O=c1c(O)c(-c2ccc(O)c(O)c2)oc2cc(O)cc(O)c12` [Quercetin, quercetin] the “BEI of TNP, fold compared with the control” value ([15]; rat) was 2.1 fold, the “CLbile, int of TNP, fold compared with the control” value ([15]; rat) was 1.7 fold and the “TNP-G formation, UGT1A1” value [1] was 1590.8 ± 30.5 ng/mL. The “TNP-G formation, Liver microsome” value ([2]; 60 min, 100 µM) was 2170.7 ± 33.6 ng/mL.
